Drawing on ChEMBL document CHEMBL5465560, “Selectivity Literature for EUbOPEN Chemogenomic Library” (2024), this text covers % of control and % of inhibition for 8 compounds.

For assay [1], the target named is T1, Dual specificity protein kinase TTK (Homo sapiens) (UniProt P33981).
T1 sequence (whole entry): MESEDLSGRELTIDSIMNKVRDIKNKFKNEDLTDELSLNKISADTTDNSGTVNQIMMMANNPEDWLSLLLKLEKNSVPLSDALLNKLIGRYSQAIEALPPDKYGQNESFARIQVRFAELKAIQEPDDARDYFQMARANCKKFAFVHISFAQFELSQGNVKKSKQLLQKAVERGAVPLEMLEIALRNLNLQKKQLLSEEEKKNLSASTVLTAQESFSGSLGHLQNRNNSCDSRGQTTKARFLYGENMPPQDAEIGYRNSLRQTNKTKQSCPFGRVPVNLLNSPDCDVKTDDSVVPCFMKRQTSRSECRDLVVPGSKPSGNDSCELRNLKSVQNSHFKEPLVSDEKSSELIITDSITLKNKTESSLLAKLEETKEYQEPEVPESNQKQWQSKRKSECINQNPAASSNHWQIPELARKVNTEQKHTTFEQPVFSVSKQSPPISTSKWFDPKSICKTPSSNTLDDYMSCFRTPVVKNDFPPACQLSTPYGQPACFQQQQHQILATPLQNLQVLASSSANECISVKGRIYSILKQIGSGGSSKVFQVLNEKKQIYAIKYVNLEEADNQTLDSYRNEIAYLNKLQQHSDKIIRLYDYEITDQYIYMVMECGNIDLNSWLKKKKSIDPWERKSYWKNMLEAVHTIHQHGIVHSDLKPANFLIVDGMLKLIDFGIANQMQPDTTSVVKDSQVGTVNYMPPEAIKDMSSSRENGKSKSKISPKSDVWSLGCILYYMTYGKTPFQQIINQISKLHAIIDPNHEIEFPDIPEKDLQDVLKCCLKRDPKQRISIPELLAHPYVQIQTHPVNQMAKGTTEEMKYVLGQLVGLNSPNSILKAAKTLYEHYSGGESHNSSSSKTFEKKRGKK
The experiment in a line: Selectivity interaction (KinomeScan (DiscoverX)) EUB0001619a TTK. The note with it: at 1 µM.

In assay [2] the target is Ribosomal protein S6 kinase beta-1 (Homo sapiens, UniProt P23443). The experiment in a line: Selectivity interaction (KinomeScan (DiscoverX)) EUB0001619a RPS6KB1. The note with it: at 1 µM.
Assay [3] addresses T2, Ankyrin repeat and protein kinase domain-containing protein 1 (Homo sapiens) (UniProt Q8NFD2).
T2 sequence (whole entry): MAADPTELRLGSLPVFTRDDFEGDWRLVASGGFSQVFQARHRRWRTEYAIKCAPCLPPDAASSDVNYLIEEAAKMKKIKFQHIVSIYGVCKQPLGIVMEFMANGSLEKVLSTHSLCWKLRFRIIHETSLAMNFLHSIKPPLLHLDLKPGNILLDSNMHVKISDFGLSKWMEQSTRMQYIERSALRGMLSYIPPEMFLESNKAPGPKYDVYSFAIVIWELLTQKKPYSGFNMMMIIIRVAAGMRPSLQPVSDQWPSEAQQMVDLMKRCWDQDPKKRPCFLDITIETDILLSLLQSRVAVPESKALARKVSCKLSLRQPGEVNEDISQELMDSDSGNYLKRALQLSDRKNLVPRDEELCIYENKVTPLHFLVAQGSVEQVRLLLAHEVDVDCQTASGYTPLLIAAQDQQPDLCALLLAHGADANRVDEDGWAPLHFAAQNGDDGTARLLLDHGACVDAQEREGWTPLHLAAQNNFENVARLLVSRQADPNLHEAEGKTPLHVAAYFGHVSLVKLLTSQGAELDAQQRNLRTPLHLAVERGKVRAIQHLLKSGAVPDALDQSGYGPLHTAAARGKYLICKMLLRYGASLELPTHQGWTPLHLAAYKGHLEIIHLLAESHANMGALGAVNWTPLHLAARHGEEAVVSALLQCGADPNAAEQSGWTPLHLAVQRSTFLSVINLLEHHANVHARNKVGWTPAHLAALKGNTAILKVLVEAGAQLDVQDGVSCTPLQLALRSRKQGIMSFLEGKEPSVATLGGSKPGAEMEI
The experiment in a line: Selectivity interaction (KinomeScan (DiscoverX)) EUB0000666a ANKK1. The following applies: at 10 µM.

The target in assay [4] is Tyrosine-protein kinase Srms (Homo sapiens) (UniProt Q9H3Y6). The experiment in a line: Selectivity interaction (ProQinase) EUB0000171b SRMS.
Sequence of Tyrosine-protein kinase Srms (Homo sapiens) (Q9H3Y6 whole entry): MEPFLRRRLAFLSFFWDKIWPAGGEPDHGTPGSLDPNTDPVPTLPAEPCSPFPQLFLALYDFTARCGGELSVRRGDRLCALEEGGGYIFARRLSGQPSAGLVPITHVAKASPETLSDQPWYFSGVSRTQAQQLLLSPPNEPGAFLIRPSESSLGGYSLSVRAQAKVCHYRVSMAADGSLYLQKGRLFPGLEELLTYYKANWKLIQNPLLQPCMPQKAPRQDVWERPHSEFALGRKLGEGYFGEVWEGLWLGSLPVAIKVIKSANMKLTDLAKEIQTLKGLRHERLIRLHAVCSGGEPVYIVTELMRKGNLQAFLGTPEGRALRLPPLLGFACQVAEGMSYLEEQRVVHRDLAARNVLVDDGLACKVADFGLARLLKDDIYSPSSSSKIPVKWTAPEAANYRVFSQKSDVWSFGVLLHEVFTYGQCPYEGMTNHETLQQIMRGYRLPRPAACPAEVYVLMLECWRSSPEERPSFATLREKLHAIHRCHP
The target of assay [5] is Ephrin type-A receptor 7 (Homo sapiens) (UniProt Q15375). The experiment in a line: Selectivity interaction (ProQinase) EUB0000171b EPHA7.
Sequence of Ephrin type-A receptor 7 (Homo sapiens) (Q15375 28-998 limits assumed): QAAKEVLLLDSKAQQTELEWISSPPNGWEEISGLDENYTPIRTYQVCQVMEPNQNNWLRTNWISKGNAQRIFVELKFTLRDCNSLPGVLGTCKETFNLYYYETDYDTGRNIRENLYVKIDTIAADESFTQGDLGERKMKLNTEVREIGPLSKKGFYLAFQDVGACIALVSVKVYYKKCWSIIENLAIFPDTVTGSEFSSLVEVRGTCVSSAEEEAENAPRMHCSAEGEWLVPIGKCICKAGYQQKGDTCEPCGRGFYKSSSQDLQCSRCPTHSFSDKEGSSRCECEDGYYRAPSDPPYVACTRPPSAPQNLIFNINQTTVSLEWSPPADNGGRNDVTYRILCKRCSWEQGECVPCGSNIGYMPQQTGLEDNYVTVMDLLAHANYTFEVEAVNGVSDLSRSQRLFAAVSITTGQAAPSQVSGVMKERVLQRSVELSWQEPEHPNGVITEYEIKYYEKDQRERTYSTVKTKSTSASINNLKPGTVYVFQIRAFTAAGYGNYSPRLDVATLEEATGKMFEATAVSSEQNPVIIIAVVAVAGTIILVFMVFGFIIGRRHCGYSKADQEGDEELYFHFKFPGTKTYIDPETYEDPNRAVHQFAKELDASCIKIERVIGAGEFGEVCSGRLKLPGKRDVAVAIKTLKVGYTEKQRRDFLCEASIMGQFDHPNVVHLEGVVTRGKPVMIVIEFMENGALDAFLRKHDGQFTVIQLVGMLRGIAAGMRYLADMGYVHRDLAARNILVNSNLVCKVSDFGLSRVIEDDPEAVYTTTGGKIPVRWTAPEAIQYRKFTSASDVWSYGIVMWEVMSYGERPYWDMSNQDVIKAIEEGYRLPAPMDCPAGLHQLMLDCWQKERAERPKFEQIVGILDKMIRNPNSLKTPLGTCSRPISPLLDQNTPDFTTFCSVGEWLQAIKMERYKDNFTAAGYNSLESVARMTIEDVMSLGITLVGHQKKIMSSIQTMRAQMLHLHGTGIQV
Assay [6] addresses Protein-tyrosine kinase 6 (Homo sapiens, UniProt Q13882). The experiment in a line: Selectivity interaction (Ambit KINOMEscan and KiNATiv profiling in Jurkat cells) EUB0000090b PTK6. The assay is classed as cell-based. The note with it: at 1 µM.
Assay [7] deals with MAP kinase-interacting serine/threonine-protein kinase 2 (Homo sapiens, UniProt Q9HBH9). The experiment in a line: Selectivity interaction (Kinase panel (Carna Biosciences)) EUB0001542aTs MKNK2. The note with it: at 1 µM.
Sequence of MAP kinase-interacting serine/threonine-protein kinase 2 (Q9HBH9 whole entry, looked up): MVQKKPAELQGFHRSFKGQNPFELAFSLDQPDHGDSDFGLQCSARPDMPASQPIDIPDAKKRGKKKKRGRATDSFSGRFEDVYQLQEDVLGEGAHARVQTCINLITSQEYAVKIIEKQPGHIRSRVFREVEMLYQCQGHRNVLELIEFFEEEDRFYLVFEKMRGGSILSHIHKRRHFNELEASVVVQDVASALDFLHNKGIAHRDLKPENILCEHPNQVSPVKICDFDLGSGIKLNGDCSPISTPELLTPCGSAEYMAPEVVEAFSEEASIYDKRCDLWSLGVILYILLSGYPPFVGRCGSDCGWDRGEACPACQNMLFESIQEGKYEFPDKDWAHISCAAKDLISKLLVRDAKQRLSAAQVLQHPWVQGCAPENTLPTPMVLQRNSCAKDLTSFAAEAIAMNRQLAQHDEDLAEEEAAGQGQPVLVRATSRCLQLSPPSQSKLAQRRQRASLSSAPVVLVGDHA
For assay [8], the target named is T3, Serine/threonine-protein kinase BRSK2 (Homo sapiens) (UniProt Q8IWQ3).
T3 sequence (whole entry): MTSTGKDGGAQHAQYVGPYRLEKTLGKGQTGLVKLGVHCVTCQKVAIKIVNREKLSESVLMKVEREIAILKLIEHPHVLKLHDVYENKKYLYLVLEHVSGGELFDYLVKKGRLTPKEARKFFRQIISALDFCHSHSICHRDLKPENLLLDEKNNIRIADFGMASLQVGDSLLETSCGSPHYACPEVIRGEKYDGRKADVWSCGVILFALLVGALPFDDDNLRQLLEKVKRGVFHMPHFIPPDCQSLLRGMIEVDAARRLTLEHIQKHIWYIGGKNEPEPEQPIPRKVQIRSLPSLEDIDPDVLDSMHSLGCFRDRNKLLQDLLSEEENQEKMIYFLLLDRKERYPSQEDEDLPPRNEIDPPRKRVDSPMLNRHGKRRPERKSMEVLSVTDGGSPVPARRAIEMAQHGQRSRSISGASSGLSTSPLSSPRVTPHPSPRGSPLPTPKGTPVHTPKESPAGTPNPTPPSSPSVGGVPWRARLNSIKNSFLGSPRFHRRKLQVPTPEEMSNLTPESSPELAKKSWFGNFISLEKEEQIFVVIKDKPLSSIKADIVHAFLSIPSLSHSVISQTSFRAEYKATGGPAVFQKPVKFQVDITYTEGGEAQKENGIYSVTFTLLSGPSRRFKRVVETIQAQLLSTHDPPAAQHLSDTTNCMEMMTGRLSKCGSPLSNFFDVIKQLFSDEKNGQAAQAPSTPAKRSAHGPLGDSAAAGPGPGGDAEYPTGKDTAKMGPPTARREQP
The experiment in a line: Selectivity interaction (KinomeScan (DiscoverX)) EUB0000655a BRSK2. The note with it: at 10 µM.

Assay [9] deals with Cyclin-dependent kinase-like 3 (Homo sapiens) (UniProt Q8IVW4). The experiment in a line: Selectivity interaction (KinomeScan (DiscoverX)) EUB0000618a CDKL3. The following applies: at 10 µM.
Sequence of Cyclin-dependent kinase-like 3 (Homo sapiens) (Q8IVW4 whole entry, looked up): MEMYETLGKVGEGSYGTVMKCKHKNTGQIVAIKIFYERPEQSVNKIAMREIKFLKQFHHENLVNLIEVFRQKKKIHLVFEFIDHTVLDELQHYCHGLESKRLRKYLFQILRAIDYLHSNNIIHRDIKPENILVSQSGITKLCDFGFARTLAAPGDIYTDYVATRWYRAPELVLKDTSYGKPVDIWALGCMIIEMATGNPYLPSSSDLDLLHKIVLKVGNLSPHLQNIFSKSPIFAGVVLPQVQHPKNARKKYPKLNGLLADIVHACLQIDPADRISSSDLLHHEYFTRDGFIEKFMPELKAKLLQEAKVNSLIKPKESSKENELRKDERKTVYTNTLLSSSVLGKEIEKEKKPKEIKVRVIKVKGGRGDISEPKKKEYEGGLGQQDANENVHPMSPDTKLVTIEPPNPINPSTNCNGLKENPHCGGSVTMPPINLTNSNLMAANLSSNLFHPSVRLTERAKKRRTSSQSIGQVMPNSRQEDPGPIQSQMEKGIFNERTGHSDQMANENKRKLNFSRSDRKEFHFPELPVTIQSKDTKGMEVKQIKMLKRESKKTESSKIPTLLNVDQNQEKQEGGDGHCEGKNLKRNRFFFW
The target in assay [10] is Angiopoietin-1 receptor (Homo sapiens) (UniProt Q02763). The experiment in a line: Selectivity interaction (KinomeScan (DiscoverX)) EUB0001079a TEK. The note with it: at 1 µM.
Sequence of Angiopoietin-1 receptor (Homo sapiens) (Q02763 whole entry): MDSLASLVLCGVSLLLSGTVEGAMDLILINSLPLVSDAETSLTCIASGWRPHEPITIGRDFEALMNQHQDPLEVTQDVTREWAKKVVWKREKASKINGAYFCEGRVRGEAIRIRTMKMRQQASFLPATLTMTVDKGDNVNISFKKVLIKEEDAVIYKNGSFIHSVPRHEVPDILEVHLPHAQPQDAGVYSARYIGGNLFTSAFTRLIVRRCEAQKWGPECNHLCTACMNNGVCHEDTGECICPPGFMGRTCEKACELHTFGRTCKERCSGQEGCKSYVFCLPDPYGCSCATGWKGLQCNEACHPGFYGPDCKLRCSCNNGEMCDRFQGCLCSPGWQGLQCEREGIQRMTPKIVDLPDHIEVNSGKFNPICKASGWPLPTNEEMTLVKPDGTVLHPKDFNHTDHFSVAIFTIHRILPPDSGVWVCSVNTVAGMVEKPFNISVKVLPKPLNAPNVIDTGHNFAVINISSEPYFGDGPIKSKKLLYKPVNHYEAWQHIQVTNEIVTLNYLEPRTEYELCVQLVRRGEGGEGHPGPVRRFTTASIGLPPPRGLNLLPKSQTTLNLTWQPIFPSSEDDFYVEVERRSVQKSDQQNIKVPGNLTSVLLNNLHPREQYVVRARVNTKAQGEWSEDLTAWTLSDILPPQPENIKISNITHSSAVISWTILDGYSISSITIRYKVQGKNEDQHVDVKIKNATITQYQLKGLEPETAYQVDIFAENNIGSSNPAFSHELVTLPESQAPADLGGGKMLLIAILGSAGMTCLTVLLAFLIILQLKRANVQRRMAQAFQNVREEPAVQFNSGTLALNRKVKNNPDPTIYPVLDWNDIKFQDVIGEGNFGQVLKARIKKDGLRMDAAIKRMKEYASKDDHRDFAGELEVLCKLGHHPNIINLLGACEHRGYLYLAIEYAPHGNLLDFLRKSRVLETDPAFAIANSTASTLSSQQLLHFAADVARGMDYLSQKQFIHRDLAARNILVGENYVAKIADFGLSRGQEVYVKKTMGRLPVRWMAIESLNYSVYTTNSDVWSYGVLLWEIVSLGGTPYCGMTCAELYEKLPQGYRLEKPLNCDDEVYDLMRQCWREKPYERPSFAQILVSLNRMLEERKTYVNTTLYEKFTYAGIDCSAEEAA
The target of assay [11] is Ribosomal protein S6 kinase alpha-1 (Homo sapiens, UniProt Q15418). The experiment in a line: Selectivity interaction (KinomeScan (DiscoverX)) EUB0001079a RPS6KA1. The note with it: at 1 µM.
Sequence of Ribosomal protein S6 kinase alpha-1 (Q15418 whole entry): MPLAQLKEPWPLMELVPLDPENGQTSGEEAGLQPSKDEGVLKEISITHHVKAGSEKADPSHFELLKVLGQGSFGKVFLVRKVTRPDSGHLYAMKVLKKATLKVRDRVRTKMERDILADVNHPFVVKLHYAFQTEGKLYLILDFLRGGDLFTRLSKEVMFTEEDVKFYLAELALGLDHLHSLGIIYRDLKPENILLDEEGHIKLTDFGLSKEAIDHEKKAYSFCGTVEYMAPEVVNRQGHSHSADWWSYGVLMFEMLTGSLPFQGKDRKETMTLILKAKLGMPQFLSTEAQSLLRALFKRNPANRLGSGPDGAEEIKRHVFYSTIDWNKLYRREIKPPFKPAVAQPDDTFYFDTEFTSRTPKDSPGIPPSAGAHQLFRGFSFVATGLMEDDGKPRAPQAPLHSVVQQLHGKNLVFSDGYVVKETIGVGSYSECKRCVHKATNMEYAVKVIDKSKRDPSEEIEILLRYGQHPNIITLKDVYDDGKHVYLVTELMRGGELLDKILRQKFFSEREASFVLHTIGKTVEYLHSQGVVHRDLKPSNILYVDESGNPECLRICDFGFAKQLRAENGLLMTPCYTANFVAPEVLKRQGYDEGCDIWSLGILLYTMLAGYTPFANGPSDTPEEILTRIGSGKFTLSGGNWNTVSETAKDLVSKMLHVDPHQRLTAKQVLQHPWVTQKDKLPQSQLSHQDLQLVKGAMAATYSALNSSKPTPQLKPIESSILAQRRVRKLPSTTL

Sequence of Protein-tyrosine kinase 6 (Q13882 whole entry, looked up): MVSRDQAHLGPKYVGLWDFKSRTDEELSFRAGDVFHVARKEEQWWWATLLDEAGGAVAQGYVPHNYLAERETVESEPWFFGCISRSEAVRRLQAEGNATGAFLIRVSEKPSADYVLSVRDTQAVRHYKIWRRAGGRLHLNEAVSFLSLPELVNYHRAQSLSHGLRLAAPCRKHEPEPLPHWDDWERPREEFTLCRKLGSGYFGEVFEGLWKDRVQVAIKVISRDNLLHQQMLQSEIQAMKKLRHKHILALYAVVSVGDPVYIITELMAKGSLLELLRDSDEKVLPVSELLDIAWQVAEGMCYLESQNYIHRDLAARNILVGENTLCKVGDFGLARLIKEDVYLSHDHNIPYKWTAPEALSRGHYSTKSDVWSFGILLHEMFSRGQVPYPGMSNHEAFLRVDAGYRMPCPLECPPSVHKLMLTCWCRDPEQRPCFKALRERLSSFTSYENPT

Consider `N#Cc1cccc(-c2c[nH]c3ncnc(N4CCOCC4)c23)c1`, for which the % of control was 92% in assay [1] and 100% in [2].

`O=C(NOC[C@H](O)CO)c1ccc(F)c(F)c1Nc1ccc(I)cc1F` registered a % of control in assay [3] of 64%.

As for `C=CC(=O)Nc1cccc(C(=O)Nc2ccc(Nc3cc(-c4[nH]c(SC)nc4C)ccn3)cc2)c1`, the % of control amounted to 95% in [4] (at 1 µM), 92% in assay [4] (at 5 µM), 93% in assay [5] (at 1 µM) and 89% in assay [5] (at 5 µM).

With `CN(C)C/C=C/C(=O)Nc1ccc(C(=O)N2CCCC(Nc3ncc(Cl)c(-c4c[nH]c5ccccc45)n3)C2)cc1` (stereo not drawn), the % of control in [6] was determined as 84%.

In the case of `Cn1cc(Nc2nccc(N3CC4CCC(C3)N4C(=O)[C@@H]3CC3(F)F)n2)cn1`, the % of inhibition in [7] was determined as 68%.

For `CN(C)CCOc1ccc(-c2nc(-c3ccncc3)c(-c3ccc4c(c3)CC/C4=N\O)[nH]2)cc1`, the % of control in assay [8] is 88%.

In turn, `O[C@H]1CC[C@H](Nc2ncc3nc(Nc4c(F)cc(F)cc4F)n([C@H]4CCOC4)c3n2)CC1` registered a % of control in assay [9] of 86%.

For `Nc1cnc(N2CCc3cc(S(=O)(=O)Nc4c(F)cc(Cl)cc4F)cc(N4CCCC4=O)c32)nc1` [TP-020n], the % of control in [10] is 78%; in [11], 100%.
